Consider 4 compounds from patent publication US20220380415A1, “Antibiotic Peptides, Compositions and Uses Thereof” (priority 2019, published 2022).

≈ marks a conversion by molar mass, not a printed value. Entries after “also recorded” stand apart in the source; their conditions may differ. Read-outs that look alike come from different tables or passages of the source. Positions of bridges follow the written chain, without caps; N, C: chain ends. Residues, ends and D or L forms follow the SMILES beside them. Some results are limits rather than exact numbers.

In data set [1] the test system is B. cepacia ATCC 25416.
The target in a further data set is E. coli RNA polymerase (Escherichia coli, UniProt P0A8T7+P0A8V2). The experiment in a line: in vitro abortive transcription initiation assay (RNAP inhibition). Format: biochemical.
Chain of E. coli RNA polymerase (P0A8T7 whole entry): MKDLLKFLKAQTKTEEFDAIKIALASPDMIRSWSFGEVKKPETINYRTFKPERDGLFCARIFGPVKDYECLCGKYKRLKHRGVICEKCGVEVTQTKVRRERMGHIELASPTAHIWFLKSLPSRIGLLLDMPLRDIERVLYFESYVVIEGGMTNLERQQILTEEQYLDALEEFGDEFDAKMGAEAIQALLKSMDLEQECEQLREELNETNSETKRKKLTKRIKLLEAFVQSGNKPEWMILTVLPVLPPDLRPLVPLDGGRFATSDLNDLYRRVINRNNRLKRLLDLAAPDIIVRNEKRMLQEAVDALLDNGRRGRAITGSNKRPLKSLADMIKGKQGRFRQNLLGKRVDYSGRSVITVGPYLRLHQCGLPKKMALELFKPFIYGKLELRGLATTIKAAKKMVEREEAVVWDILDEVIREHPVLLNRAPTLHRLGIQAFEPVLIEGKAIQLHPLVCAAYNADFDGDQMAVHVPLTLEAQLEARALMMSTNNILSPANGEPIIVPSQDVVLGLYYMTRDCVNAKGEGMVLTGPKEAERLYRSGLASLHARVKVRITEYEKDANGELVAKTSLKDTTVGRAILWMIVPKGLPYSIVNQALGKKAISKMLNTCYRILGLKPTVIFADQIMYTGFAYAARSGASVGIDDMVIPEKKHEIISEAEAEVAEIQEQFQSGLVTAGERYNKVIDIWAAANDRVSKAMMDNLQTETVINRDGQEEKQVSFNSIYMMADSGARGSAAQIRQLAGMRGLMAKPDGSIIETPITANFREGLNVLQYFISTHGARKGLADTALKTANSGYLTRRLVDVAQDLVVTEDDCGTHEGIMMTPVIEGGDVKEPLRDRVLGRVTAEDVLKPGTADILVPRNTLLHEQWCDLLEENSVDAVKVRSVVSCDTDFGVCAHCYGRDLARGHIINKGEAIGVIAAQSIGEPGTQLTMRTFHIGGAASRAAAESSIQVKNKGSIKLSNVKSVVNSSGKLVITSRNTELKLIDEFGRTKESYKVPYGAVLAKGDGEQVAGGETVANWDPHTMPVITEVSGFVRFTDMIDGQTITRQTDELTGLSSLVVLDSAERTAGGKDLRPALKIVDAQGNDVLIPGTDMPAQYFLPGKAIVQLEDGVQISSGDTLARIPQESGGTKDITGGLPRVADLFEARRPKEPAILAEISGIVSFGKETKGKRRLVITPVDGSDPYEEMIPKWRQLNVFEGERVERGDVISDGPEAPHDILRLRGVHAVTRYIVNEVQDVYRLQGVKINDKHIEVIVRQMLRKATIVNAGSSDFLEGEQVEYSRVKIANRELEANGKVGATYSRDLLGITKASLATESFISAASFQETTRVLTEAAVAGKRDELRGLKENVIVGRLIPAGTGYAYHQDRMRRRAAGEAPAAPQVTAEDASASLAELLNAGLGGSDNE
Chain of E. coli RNA polymerase (P0A8V2 whole entry): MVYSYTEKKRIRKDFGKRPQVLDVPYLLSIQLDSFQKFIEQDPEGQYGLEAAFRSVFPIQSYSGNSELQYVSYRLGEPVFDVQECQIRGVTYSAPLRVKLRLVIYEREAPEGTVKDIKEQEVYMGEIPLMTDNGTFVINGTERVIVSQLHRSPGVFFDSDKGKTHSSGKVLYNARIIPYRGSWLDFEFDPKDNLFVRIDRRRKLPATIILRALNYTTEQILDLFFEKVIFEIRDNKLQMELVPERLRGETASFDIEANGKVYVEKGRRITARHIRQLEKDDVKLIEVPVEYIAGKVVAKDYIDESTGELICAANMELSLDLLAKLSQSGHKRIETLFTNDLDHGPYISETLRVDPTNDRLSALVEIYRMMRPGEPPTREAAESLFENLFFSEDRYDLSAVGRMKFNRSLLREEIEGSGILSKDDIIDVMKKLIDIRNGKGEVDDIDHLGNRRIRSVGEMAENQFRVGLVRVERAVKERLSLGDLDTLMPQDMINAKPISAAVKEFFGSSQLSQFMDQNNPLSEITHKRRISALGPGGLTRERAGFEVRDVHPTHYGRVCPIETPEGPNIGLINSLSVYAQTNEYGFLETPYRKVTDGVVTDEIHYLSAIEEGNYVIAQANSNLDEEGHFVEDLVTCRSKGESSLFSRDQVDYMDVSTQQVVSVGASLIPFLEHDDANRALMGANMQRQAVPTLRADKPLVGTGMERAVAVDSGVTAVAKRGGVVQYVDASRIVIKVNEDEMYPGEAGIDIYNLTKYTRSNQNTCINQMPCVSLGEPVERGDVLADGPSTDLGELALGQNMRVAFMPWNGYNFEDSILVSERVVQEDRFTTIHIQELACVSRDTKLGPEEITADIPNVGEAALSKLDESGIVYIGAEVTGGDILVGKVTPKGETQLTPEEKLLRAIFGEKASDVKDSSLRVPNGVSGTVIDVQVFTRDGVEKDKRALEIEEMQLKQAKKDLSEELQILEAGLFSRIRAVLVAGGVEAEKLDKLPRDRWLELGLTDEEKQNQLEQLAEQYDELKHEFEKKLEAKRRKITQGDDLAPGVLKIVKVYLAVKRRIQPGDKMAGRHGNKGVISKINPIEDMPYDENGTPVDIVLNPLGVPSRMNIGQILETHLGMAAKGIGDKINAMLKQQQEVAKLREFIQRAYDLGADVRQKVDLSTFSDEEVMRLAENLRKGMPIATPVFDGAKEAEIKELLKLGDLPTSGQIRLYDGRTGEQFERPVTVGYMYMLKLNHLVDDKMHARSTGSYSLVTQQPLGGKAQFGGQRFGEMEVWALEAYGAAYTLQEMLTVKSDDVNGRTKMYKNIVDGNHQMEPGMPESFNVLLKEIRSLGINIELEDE
Chain of E. coli RNA polymerase (P0A7Z4 whole entry, further chain): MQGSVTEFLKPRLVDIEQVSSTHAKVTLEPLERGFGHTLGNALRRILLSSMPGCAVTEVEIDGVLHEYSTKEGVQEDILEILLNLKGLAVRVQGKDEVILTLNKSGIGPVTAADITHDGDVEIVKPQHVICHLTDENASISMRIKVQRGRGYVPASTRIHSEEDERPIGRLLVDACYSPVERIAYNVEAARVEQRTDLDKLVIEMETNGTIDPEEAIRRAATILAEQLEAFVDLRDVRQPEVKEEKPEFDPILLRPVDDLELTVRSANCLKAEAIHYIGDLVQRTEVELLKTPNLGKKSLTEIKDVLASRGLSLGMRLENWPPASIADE
Chain of E. coli RNA polymerase (P00579 whole entry, further chain): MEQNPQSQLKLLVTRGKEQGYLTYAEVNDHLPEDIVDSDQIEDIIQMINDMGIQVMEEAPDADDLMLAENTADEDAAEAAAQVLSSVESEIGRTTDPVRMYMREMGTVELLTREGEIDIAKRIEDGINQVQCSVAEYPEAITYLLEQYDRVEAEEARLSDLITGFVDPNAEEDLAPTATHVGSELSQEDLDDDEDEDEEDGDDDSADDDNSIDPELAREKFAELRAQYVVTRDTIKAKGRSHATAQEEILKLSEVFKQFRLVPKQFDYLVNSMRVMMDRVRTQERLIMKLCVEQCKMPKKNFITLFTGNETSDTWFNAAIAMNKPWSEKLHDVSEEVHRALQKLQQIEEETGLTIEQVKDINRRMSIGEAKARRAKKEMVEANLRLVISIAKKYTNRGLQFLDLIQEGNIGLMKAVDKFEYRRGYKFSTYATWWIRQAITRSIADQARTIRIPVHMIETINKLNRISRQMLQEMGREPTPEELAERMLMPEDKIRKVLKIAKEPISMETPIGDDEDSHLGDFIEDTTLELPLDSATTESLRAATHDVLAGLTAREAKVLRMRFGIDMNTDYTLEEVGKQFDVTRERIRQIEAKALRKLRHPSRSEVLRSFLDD
Chain of E. coli RNA polymerase (P0A800 whole entry, further chain): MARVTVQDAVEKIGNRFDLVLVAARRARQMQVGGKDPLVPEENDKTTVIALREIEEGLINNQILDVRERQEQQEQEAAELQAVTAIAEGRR
Data set [2] is described as follows: thermostability analysis via LC-MS. As to conditions: heated to 95° C.; 2 h for the LC-MS sample.
In data set [3] the test system is Salmonella enterica serovar newport.
Data set [4] relates to Burkholderia pseudomallei 576mn.
For data set [5], the system named is Pseudomonas aeruginosa PAO1.
For data set [6], the system named is Burkholderia multivorans ATCC 17616.
The test system of data set [7] is B. mallei Old ISU.
Data set [8] concerns Enterohemorrhagic Escherichia coli O157:H7 TUV-93-0.
Data set [9] deals with B. cepacia ATCC 25416. This is another data set of the same source.
Data set [10] relates to Burkholderia pseudomallei Bp82.
In data set [11] the test system is Burkholderia thailandensis E264.
Data set [12] has as its system B. mallei NVSL 86-567-2.
The subject of data set [13] is B. mallei NVSL 86-567-2. The source holds these as a separate data set.
The test system of another data set is B. pseudomallei. Format: cell-based, Burkholderia pseudomallei.
Data set [14] deals with B. multivorans ATCC 17616.
For data set [15], the system named is B. multivorans ATCC 17616. This is another data set of the same source.
The subject of data set [16] is Burkholderia gladioli ATCC 10248.
The next data set relates to Burkholderia multivorans. Format: cell-based.
For data set [17], the system named is B. mallei Old ISU. This is another data set of the same source.
Data set [18] concerns Enterohemorrhagic Escherichia coli O157:H7 TUV-93-0. The conditions noted are these: E. coli; cited from earlier work.
Data set [19] has as its system Salmonella enterica serovar newport. The conditions noted are these: cited from earlier work.

Consider `CC[C@H](C)[C@@H]1NC(=O)[C@H](CO)NC(=O)CNC(=O)[C@H](CC(=O)O)NC(=O)CNC(=O)CNC(=O)CC[C@@H](C(=O)N[C@@H](Cc2ccc(O)cc2)C(=O)N[C@@H](Cc2ccccc2)C(=O)N[C@@H](CC(N)=O)C(=O)N[C@@H](CCCNC(=N)N)C(=O)N2CCC[C@H]2C(=O)N[C@@H](CCSC)C(=O)N[C@@H](Cc2c[nH]cn2)C(=O)N[C@H](C(=O)N[C@@H](Cc2c[nH]cn2)C(=O)N[C@@H](CC(=O)O)C(=O)N[C@@H](Cc2c[nH]c3ccccc23)C(=O)N[C@@H](CCC(N)=O)C(=O)N[C@H](C(=O)N[C@@H](CCSC)C(=O)N[C@@H](CC(=O)O)C(=O)N[C@@H](CO)C(=O)NCC(=O)N[C@@H](Cc2ccc(O)cc2)C(=O)N[C@@H](Cc2ccc(O)cc2)C(=O)NCC(=O)O)[C@@H](C)CC)[C@@H](C)CC)NC(=O)[C@H](C)NC1=O` [ubonodin] (GGDGSIAEYFNRPMHIHDWQIMDSGYYG-OH; lactam N-8; C-terminus assumed), for which the “MIC via liquid growth assay” value in the data set on B. cepacia ATCC 25416 [1] was 4 µM (≈ 12.8 µg/mL); in the data set on B. mallei NVSL 86-567-2 [13], over 31 µM; in data set [14], 31 µM (≈ 99.2 µg/mL); in the data set with B. mallei Old ISU [17], over 31 µM. Also, the “potency in abortive transcription assays relative to MccJ25” value on E. coli RNA polymerase is listed as “somewhat lower than that of MccJ25”. In addition, the “inhibition of E. coli RNA polymerase (abortive transcription initiation)” value on E. coli RNA polymerase (0, 1, 10 or 100 μM peptide) is recorded as “inhibits transcription initiation; also recorded: able to inhibit E. coli RNAP; also recorded: inhibits E. coli RNA polymerase”. Also, in [2], the “thermal degradation by LC-MS” value was “fragments into a variety of different structures; also recorded: major species in this sample is still intact ubonodin”. Also, the “antimicrobial activity (in words)” value in data set [3] is listed as “unable to kill”; in [8], “unable to kill”; with B. pseudomallei it was “no activity”; in data set [16], “no activity”. Also, the “MIC in M63 agar” value in data set [3] (serovar newport) was over 500 µM; in data set [4], over 500 µM; in data set [5] it was over 500 µM; in data set [6] it was 8 µM (≈ 25.6 µg/mL); in data set [6] (ATCC 17616), 7.8 µM (≈ 25 µg/mL); in [8] (O157:H7), over 500 µM. The “MIC in M63 agar” value in data set [10] is over 500 µM; in data set [11], 500 µM (≈ 1600 µg/mL); in [16] (ATCC 10248), over 500 µM. The “MIC via spot-on-lawn assay” value with B. mallei Old ISU [7] was 40 µM (≈ 128 µg/mL); against B. cepacia ATCC 25416 [9], 40 µM (≈ 128 µg/mL); with B. mallei NVSL 86-567-2 [12], 40 µM (≈ 128 µg/mL); in data set [15], 20 µM (≈ 64 µg/mL). Besides, in the data set with Burkholderia multivorans, the “activity against B. multivorans after heating” value is “maintains its activity; also recorded: loses activity”.
As to “H17A (GGDGSIAEYFNRPMHIADWQIMDSGYYG; listed as Burkholderia ubonensis)”, in [6], the “antimicrobial activity of purified ubonodin variants relative to wild-type” value was “near wild-type activity”.
For the compound citrocin, the “susceptibility of strain to peptide” value in data set [18] and in data set [19] was “susceptible” throughout.
With “microcin J25 (GGAGHVPEYFVGIGTPISFYG) [MccJ25]”, the “susceptibility of strain to peptide” value in [18] and in data set [19] was “susceptible” in each case.
